Assay results taken from patent publication US11345711B2, “8,9-dihydroimidazo[1,2-a]pyrimido[5,4-e]pyrimidin-5(6H)-ones” (IMPACT THERAPEUTICS (SHANGHAI), INC, priority 2016, dated 2022).
Read-outs that look alike come from different tables or passages of the source.

Legend:
advanced solid tumors = conditions: cited from earlier work
Wee1 (h) = Wee1 (h) (Homo sapiens, UniProt P30291); assay: Wee1 kinase (h) detection method, [γ-33P]-ATP filter assay; format: biochemical
LoVo cells = assay: MTT based cell viability assay on LoVo cells; conditions: Homo sapiens, LoVo, 72 h, 3 d, read-out: IC50, growth inhibition of LoVo cells
Method in brief: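 Inhibition of LoVo proliferation was derived as IC50 from a sigmoidal dose-response fit of cell survival. Readout was MTT (0.5 mg/mL, 4 h) with absorbance at 552/630/690 nm, after 3-day treatment at 37 °C. Eight-point series from 10 μM to 0.01 μM, DMSO control, 1% DMSO final.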

NCI-H1299 cells = assay: MTT based cell viability assay on NCI-H1299 cells; conditions: Homo sapiens, read-out: IC50, growth inhibition of NCI-H1299 cells
Method in brief: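 Viability read-out was MTT reduction (0.5 mg/mL, 4 h, absorbance 552/630/690 nm) after 3-day compound exposure at 37 °C of NCI-H1299 cells seeded at 1000 per well. Dilutions spanned 10 μM–0.01 μM in DMSO, final DMSO 1‰. Survival-versus-concentration curves were fitted sigmoidally to give IC50.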

[1] = target: T1, human Wee1 (amino acids M291 to K575) (Homo sapiens, UniProt P30291); assay: Wee1 dissociation constant (Kd), KINOMEscan KdELECT competitive binding test; conditions: 11-point 3-fold dilution
T1 construct: host or cells: E. coli BL21 infected with T7 phage
T1 sequence (P30291 291-575): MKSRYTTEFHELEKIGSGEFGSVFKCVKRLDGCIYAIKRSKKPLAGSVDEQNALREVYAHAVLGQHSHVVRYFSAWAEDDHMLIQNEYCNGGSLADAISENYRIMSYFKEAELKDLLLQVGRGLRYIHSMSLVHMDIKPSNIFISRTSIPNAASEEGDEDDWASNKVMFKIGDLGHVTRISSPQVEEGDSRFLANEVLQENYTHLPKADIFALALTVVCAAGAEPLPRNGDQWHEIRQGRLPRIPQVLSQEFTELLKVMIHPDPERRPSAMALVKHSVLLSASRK
Experimental: Determination of Wee1 Dissociation Constant (Kd)
The Wee1 dissociation constants (Kd) which measures the affinity of tested compound to Wee 1 have been determined in the KINOMEscan™ KdELECT Service at DiscoveRx. KINOMEscan™ assay is based on competitive binding test. The affinity index Kd for Wee1 is calculated by qPCR measurement of the compounds that compete with the immobilized ligand and bind to the enzyme activity center.
Wee1 kinase-tagged T7 phage strains were prepared in an E. coli BL21 strain. E. coli was grown to log-phase and infected with T7 phage and incubated with shaking at 32° C. until lysis. The lysates were centrifuged and filtered to remove cell debris. A partial length construct of human Wee1 (amino acids M291 to K575 based on reference sequence NP_003381.1) was expressed on the T7 phage coat. A short DNA sequence, embedded within the T7 phage genome, was used as amplicon for detection via qPCR. […]
Test compounds were prepared as 111× stocks in 100% DMSO. Kas were determined using an 11-point 3-fold compound dilution series with three DMSO control points. […] The kinase concentration in the eluates was measured by qPCR. qPCR reactions were assembled by adding 2.5 μL of kinase eluate to 7.5 μL of qPCR master mix containing 0.15 μM amplicon primers and 0.15 μM amplicon probe. […]
The constants (KdS) were calculated with a standard dose-response curve using the Hill equation: […]

[2] = AZD1775 alone or in combination with gemcitabine, cisplatin or carboplatin, 176 evaluable patients

Sequence of Wee1 (h) (P30291 whole entry): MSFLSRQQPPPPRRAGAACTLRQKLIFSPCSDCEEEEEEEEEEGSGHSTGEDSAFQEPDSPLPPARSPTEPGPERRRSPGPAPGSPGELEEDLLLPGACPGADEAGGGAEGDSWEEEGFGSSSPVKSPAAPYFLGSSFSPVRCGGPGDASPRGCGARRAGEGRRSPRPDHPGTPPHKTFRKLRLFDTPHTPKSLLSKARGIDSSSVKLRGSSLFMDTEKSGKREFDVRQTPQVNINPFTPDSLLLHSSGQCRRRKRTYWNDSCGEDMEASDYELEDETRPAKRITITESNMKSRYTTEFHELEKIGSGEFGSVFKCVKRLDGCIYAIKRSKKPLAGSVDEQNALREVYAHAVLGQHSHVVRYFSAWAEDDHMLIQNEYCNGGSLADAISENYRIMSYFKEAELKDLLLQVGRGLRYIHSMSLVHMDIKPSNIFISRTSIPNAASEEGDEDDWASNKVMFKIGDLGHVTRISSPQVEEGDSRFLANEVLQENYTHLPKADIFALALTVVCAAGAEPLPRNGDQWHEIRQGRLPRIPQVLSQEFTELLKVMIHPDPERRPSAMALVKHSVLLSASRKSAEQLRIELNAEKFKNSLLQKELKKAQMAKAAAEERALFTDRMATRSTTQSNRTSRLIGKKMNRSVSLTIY

Row | Compound | IC50 (LoVo cells) [µM] | IC50 (NCI-H1299 cells; NCI-H1299, NCI-H1299 cells) [µM] | IC50 (NCI-H1299 cells; NCI-H1299 cells) [µM] | Inh. (%) of Wee1 kinase enzyme activity (Wee1 (h); C 1 μm compound) [%] | further results
1 | C=CCn1c(=O)c2cnc(Nc3ccc(N4CCN(C)CC4)cc3)nc2n1-c1cccc(C(C)(C)O)n1 [AZD1775] | 0.389 | 0.287 |  |  | partial response (advanced solid tumors; [2]): 10%; stable disease as the best response (advanced solid tumors; [2]): 53%; response rate (advanced solid tumors; TP53 wild-type patients (n=33)): 12%; safety and tolerability (advanced solid tumors; alone or in combination with chemotherapy, at a certain dose): safe and tolerable; response rate (advanced solid tumors; patients with TP53 mutation (n=19)): 21%; Inh. (%) of Wee1 kinase enzyme activity (Wee1 (h); C 10 μm compound): 97%
2 | CN1CCN(c2ccc(Nc3ncc4c(n3)N3CCN=C3N(c3ccccc3Cl)C4=O)cc2)CC1 [Example 1, 6-(2-chlorophenyl)-2-((4-(4-methylpiperazin-1-yl)phenyl)amino)-8,9-dihydroimidazo[1,2-a]pyrimido[5,4-e]pyrimidin-5(6H)-one] | 3.58 |  | 1.59 |  | Kd [1]: 0.25 µM; Inh. (%) of Wee1 kinase enzyme activity (Wee1 (h); C 10 μm compound): 96%
3 | CN1CCN(c2ccc(Nc3ncc4c(n3)N3CCN=C3N(c3c(F)cccc3Cl)C4=O)cc2)CC1 [Example 2, 6-(2-Chloro-6-fluorophenyl)-2-((4-(4-methylpiperazin-1-yl)phenyl)amino)-8,9-dihydroimidazo[1,2-a]pyrimido[5,4-e]pyrimidin-5(6H)-one] | 0.425 | 0.782 |  |  | Kd [1]: 0.034 µM; Inh. (%) of Wee1 kinase enzyme activity (Wee1 (h); C 10 μm compound): 95%
4 | Cc1cc(Nc2ncc3c(n2)N2CCN=C2N(c2c(C)cccc2Cl)C3=O)cc(Cl)c1N1CCN(C)CC1 [Example 173, 6-(2-Chloro-6-methylphenyl)-2-((3-chloro-5-methyl-4-(4-methylpiperazin-1-yl)phenyl)amino)-8,9-dihydroimidazo[1,2-a]pyrimido[5,4-e]pyrimidin-5(6H)-one] | 0.0992 | 0.226 |  | 94 | Inh. (%) of Wee1 kinase enzyme activity (Wee1 (h); C 0.01 μm compound): 26%; Inh. (%) of Wee1 kinase enzyme activity (Wee1 (h); C 0.1 μm compound): 71%
5 | Cc1cc(Nc2ncc3c(n2)N2CCN=C2N(c2c(C)cccc2Cl)C3=O)cc(C)c1N1CCN(C)CC1 [Example 174, 6-(2-Chloro-6-methylphenyl)-2-((3,5-dimethyl-4-(4-methylpiperazin-1-yl)phenyl)amino)-8,9-dihydroimidazo[1,2-a]pyrimido[5,4-e]pyrimidin-5(6H)-one] | 0.136 | 0.152 |  | 94 | Inh. (%) of Wee1 kinase enzyme activity (Wee1 (h); C 0.01 μm compound): 30%; Inh. (%) of Wee1 kinase enzyme activity (Wee1 (h); C 0.1 μm compound): 83%
6 | O=C1c2cnc(Nc3ccc(N4CCNCC4)cc3)nc2N2CCN=C2N1c1c(Cl)cccc1Cl [Example 175, 6-(2,6-Dichlorophenyl)-2-((4-(piperazin-1-yl)phenyl)amino)-8,9-dihydroimidazo[1,2-a]pyrimido[5,4-e]pyrimidin-5(6H)-one] | 0.192 |  | 0.269 | 95 | 
7 | O=C1c2cnc(Nc3ccc(N4CCNCC4)c(Cl)c3)nc2N2CCN=C2N1c1c(Cl)cccc1Cl [Example 176, 6-(2,6-Dichlorophenyl)-2-((3-chloro-4-(piperazin-1-yl)phenyl)amino)-8,9-dihydroimidazo[1,2-a]pyrimido[5,4-e]pyrimidin-5(6H)-one] | 0.0736 |  | 0.126 | 96 | 
8 | COc1cc(Nc2ncc3c(n2)N2CCN=C2N(c2c(Cl)cccc2Cl)C3=O)ccc1N1CCNCC1 [Example 178, 6-(2,6-Dichlorophenyl)-2-((3-methoxy-4-(piperazin-1-yl)phenyl)amino)-8,9-dihydroimidazo[1,2-a]pyrimido[5,4-e]pyrimidin-5(6H)-one] | 0.281 |  | 0.36 | 94 | 
9 | O=C1c2cnc(Nc3ccc(N4CCNCC4)c(CO)c3)nc2N2CCN=C2N1c1c(F)cccc1Cl [Example 179, 6-(2-Chloro-6-fluorophenyl)-2-((3-(hydroxymethyl)-4-(piperazin-1-yl)phenyl)amino)-8,9-dihydroimidazo[1,2-a]pyrimido[5,4-e]pyrimidin-5(6H)-one] | 2.86 |  | 70.6 | 95 | 
10 | O=C1c2cnc(Nc3ccc(N4CCNCC4)c(CO)c3)nc2N2CCN=C2N1c1c(Cl)cccc1Cl [Example 180, 6-(2,6-Dichlorophenyl)-2-((3-(hydroxymethyl)-4-(piperazin-1-yl)phenyl)amino)-8,9-dihydroimidazo[1,2-a]pyrimido[5,4-e]pyrimidin-5(6H)-one] | 2.38 |  | 2.05 | 96 | 
11 | CN1CCN(c2ccc(Nc3ncc4c(n3)N3CCN=C3N(c3c(Cl)cccc3Cl)C4=O)cc2CO)CC1 [Example 181, 6-(2,6-Dichlorophenyl)-2-((3-(hydroxymethyl)-4-(4-methylpiperazin-1-yl)phenyl)amino)-8,9-dihydroimidazo[1,2-a]pyrimido[5,4-e]pyrimidin-5(6H)-one] | 0.142 |  | 0.187 | 96 | 
12 | O=C1c2cnc(Nc3ccc(N4CCN(CCO)CC4)cc3)nc2N2CCN=C2N1c1c(Cl)cccc1Cl [Example 182, 6-(2,6-Dichlorophenyl)-2-((4-(4-(2-hydroxyethyl)piperazin-1-yl)phenyl)amino)-8,9-dihydroimidazo[1,2-a]pyrimido[5,4-e]pyrimidin-5(6H)-one] | 0.243 |  | 0.503 | 94 | 
13 | O=C1c2cnc(Nc3ccc(N4CCOCC4)cc3)nc2N2CCN=C2N1c1c(Cl)cccc1Cl [Example 183, 6-(2,6-Dichlorophenyl)-2-((4-morpholinophenyl)amino)-8,9-dihydroimidazo[1,2-a]pyrimido[5,4-e]pyrimidin-5(6H)-one] | 0.775 |  | 1.04 | 95 | 
